According to ChEMBL document CHEMBL1201862, “PubChem BioAssay data set” (2004):
The source made the active and inactive calls.

What was measured:
Cytochrome P450 2D6 = Cytochrome P450 2D6 (Homo sapiens, UniProt P10635); assay: qHTS Assay for Inhibitors and Substrates of Cytochrome P450 2D6. [Related pubchem assays: 410 ]; type: ADME; details: read-out: Potency
Cytochrome P450 3A4 = Cytochrome P450 3A4 (Homo sapiens, UniProt P08684); details: Potency;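 also: confirmatory qHTS run detecting inhibitors and substrates of CYP3A4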
Sequence of Cytochrome P450 3A4 (P08684 whole entry): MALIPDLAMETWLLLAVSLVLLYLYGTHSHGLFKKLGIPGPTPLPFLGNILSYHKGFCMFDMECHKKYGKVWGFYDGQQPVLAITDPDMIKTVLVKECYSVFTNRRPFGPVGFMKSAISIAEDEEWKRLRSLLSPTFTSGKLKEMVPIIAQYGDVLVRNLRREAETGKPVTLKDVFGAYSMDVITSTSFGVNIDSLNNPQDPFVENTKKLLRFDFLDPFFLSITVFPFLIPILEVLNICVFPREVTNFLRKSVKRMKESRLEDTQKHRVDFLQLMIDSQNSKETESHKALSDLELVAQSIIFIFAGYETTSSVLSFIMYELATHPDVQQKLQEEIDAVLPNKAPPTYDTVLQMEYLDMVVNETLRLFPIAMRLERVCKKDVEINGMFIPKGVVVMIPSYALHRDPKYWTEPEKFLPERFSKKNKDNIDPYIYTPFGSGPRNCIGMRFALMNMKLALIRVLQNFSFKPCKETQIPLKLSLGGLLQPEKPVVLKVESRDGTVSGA

[1] = A cytotoxicity screen of small molecule inhibitors of the PhoP region in Salmonella typhi identified in the primary screen. [Related pubchem assays: 1850, 1864, 1985 ]; type: functional
[2] = biological target: T1, Calpain-2 catalytic subunit (Sus scrofa, UniProt P43367); assay: pig calpain II inhibitor potency, dose response, biochemical, fluorogenic peptide substrate (AID 1420); type: functional
T1 sequence (P43367 whole entry): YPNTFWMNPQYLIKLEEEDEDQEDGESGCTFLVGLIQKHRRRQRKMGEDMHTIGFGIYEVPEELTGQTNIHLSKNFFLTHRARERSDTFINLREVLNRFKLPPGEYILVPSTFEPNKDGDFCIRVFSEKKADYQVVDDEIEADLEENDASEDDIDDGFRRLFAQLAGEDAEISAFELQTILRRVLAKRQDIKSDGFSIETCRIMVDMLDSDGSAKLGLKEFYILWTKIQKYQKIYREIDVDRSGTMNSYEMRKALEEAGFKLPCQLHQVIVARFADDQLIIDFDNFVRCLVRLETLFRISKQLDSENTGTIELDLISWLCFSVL

Mucolipin-3 = biological target: T2, Mucolipin-3 (Homo sapiens, UniProt Q8TDD5); assay: Dose response cell-based high-throughput screening assay for agonists of the transient receptor potential channel ML3 (TRPML3). [Related pubchem assays: 1526, 1424, 1448 ]; type: functional
T2 sequence (Q8TDD5 whole entry): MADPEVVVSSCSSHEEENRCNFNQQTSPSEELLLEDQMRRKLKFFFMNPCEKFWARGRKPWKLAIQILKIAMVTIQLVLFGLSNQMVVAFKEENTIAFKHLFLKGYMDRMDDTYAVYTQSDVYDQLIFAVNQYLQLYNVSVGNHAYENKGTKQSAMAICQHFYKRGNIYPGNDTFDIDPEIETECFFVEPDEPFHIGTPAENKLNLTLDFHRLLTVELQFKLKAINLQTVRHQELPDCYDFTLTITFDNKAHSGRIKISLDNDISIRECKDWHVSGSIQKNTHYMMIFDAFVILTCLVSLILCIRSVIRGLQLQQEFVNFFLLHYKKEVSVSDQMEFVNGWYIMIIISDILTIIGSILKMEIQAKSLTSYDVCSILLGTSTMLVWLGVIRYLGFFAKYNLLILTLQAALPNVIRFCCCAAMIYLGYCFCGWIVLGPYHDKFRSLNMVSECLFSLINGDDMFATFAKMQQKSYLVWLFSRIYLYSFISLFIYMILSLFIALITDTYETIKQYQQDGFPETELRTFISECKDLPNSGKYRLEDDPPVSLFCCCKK

Ion channel NompC = Ion channel NompC (Danio rerio, UniProt Q7T1G6); assay: Fluorescence counterscreen assay for TRPML3 agonists: dose response cell-based high-throughput screening assay to identify agonists of the transient receptor potential channel N1 (TRPN1). [Related pubchem assays: 1526, 1424, 1448 ]; type: functional
Sequence of Ion channel NompC (Q7T1G6 whole entry): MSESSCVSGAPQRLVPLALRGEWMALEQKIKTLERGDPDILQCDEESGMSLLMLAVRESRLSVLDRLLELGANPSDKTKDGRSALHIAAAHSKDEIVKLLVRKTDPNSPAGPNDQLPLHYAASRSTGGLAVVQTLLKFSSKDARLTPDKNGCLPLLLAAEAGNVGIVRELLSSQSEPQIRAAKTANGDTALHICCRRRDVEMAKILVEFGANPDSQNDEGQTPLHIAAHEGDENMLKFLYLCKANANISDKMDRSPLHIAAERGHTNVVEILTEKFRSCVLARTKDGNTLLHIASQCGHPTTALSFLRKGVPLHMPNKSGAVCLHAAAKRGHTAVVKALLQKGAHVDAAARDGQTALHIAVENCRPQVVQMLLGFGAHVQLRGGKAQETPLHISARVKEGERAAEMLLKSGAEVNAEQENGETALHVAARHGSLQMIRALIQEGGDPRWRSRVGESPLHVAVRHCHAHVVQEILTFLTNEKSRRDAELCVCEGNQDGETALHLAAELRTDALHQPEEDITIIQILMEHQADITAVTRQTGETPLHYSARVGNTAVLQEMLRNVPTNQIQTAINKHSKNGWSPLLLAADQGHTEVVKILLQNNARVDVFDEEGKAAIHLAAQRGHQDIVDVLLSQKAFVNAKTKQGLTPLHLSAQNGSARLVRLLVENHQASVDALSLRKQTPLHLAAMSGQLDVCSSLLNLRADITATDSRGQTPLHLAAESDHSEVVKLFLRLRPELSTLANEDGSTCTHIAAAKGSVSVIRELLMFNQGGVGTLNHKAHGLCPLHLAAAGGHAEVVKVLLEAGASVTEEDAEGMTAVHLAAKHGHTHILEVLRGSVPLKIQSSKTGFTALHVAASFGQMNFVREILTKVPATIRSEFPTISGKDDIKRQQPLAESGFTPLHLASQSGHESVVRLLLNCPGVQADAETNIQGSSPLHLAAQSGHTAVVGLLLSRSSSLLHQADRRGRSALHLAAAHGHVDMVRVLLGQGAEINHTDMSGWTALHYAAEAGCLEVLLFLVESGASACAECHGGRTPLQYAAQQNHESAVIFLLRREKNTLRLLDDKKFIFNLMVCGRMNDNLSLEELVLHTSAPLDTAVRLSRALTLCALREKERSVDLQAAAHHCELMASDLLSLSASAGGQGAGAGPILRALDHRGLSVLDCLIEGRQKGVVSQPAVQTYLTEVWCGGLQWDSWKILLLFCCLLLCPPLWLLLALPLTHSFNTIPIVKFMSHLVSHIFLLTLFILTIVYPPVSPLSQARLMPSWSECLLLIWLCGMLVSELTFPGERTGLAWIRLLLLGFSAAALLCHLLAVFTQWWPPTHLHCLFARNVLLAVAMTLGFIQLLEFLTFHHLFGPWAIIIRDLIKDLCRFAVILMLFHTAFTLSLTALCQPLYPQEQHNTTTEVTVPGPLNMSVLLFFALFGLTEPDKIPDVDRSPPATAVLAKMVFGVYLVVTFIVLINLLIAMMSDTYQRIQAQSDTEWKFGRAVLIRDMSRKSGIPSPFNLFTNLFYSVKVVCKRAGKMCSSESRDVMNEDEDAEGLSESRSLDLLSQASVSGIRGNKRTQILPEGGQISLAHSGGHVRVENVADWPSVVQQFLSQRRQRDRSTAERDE

Protein RecA = biological target: T3, Protein RecA (Mycobacterium tuberculosis, UniProt P9WHJ3); assay: Fluorescence Cell-Free Homogeneous Dose Retest to Identify Inhibitors of RecA-Intein Splicing Activity. [Related pubchem assays (depositor defined):AID2097, AID2223, AID489010, AID492950]; type: functional
T3 sequence (P9WHJ3 whole entry): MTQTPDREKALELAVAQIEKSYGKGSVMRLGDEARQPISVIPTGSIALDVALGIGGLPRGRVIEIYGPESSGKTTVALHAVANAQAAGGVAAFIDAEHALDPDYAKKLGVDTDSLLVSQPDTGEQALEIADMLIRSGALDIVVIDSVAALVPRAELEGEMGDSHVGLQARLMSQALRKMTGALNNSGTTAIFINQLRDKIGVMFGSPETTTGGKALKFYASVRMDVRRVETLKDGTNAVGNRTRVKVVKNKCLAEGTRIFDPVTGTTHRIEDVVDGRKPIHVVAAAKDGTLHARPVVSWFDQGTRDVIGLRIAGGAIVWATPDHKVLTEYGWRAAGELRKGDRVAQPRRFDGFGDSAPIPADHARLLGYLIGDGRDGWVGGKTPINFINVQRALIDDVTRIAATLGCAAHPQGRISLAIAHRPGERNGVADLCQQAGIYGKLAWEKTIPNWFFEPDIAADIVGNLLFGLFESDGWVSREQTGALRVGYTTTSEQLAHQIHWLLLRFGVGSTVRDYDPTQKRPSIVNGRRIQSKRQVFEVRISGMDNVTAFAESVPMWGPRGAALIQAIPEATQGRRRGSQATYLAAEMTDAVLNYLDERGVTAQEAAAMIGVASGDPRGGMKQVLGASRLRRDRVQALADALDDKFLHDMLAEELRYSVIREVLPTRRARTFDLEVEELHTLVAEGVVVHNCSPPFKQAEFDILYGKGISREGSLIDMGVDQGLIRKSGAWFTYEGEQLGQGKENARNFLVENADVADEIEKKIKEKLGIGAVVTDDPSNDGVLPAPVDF

[3] = biological target: T4, Replicative DNA helicase DnaB (Mycobacterium tuberculosis, UniProt P9WMR3); assay: DnaB intein splicing inhibitors, dose response, biochemical, cell-free fluorescence (AID 449749); type: functional
T4 sequence (P9WMR3 whole entry): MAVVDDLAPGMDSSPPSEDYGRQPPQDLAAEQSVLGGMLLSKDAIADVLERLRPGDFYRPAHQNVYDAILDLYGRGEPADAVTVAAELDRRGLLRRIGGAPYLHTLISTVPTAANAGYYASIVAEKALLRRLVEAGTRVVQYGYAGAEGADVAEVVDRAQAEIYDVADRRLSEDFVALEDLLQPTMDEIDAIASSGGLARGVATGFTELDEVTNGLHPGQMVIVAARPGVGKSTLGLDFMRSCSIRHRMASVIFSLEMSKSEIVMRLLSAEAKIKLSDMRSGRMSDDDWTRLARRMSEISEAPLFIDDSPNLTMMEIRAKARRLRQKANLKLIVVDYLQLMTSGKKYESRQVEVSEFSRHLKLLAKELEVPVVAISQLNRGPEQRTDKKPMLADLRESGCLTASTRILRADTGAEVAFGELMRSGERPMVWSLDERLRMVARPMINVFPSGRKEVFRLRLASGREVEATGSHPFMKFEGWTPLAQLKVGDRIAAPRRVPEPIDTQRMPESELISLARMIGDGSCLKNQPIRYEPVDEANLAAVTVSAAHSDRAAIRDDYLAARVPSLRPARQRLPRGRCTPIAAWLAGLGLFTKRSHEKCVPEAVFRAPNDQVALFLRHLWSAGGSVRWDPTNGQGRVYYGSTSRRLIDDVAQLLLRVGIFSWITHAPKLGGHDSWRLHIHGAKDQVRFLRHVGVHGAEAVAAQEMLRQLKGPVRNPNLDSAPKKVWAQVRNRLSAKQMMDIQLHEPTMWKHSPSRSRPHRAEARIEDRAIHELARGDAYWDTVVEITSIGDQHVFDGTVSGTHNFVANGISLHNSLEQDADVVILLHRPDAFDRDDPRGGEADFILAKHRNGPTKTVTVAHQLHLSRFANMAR

[4] = Luminescence Cell-Based Dose Response HTS to Identify Inhibitors of 5'UTR Stem-Loop Driven Prion Protein mRNA Translation in H4 Neuroglioblastoma Cells. [Related pubchem assays: 1827 (Project Summary), 1813 (Primary HTS)]; type: functional
Aminopeptidase N = biological target: T5, Aminopeptidase N (Plasmodium falciparum FcB1/Columbia, UniProt O96935); assay: P. falciparum M1AAP inhibitors, biochemical, fluorogenic H-Leu-NHMec substrate, 1536-well (AID 1445); set-up: species or system Plasmodium falciparum 3D7, 3D7
T5 sequence (O96935 whole entry): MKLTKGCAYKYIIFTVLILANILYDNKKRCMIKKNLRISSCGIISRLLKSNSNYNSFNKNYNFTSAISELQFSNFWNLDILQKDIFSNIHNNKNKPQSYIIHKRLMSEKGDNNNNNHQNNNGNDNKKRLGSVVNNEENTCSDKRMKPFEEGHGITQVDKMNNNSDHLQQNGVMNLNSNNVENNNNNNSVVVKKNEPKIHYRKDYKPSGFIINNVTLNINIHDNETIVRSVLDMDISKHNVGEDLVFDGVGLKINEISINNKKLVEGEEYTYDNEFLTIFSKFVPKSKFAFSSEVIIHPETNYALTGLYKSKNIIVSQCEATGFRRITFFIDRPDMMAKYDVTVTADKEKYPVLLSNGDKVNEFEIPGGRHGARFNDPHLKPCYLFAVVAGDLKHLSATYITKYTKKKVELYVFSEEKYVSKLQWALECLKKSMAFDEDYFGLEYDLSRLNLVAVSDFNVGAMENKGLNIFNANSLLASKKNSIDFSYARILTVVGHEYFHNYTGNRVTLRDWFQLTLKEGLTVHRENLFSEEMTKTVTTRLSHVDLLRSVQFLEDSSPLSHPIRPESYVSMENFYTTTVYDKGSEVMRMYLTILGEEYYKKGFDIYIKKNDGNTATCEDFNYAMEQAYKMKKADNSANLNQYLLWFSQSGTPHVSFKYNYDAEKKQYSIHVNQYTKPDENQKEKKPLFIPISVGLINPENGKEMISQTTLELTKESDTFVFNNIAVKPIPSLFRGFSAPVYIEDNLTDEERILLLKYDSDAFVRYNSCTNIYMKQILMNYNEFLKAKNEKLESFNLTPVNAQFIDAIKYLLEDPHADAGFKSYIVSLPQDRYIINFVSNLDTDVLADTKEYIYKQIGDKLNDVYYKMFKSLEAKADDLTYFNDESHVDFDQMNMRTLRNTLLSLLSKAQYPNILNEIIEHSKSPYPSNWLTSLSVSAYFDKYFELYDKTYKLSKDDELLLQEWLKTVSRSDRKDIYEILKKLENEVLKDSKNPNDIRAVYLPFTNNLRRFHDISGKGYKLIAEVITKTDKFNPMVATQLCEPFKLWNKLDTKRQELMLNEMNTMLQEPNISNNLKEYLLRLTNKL

[5] = inhibitors of firefly luciferase expression or activity, dose response, H4 neuroglioma cells, luminescence (AID 1990); type: functional, cell-based
[6] = inhibitors of SNCA 5'UTR-driven reporter translation, confirmation, H4 neuroglioma cells, luminescence (AID 1988); type: functional, cell-based
Hexokinase HKDC1 = biological target: T6, Hexokinase HKDC1 (Homo sapiens, UniProt Q2TB90); assay: HKDC1 hexokinase inhibitors, dose response, biochemical, W721R variant (AID 504729); type: functional
T6 sequence (Q2TB90 whole entry): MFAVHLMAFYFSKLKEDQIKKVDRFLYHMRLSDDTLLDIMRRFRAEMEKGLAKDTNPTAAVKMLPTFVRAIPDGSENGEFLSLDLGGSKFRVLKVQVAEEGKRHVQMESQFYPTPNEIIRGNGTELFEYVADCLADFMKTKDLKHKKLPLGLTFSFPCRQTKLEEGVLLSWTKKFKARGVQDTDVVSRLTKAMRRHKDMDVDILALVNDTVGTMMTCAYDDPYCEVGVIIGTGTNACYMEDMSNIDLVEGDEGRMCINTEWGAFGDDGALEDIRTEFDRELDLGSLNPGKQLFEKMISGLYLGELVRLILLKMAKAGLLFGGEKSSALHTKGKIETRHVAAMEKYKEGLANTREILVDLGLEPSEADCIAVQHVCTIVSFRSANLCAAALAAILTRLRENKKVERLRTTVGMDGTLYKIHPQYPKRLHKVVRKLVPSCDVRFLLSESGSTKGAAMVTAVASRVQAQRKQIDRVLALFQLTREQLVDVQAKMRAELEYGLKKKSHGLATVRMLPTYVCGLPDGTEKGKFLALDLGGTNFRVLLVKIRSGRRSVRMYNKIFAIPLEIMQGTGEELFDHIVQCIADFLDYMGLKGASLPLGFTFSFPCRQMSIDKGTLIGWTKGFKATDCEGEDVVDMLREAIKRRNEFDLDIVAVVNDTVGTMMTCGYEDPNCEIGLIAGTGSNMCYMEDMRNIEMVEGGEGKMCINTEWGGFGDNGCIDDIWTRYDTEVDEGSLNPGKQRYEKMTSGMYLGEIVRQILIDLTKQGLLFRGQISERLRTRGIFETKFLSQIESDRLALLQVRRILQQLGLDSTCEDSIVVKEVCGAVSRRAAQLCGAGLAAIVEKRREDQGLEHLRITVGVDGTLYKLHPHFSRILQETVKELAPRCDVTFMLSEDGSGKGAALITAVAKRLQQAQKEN

Large T antigen = Large T antigen (Simian virus 40, UniProt P03070); type: functional, Betapolyomavirus macacae;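 also: Confirmatory-stage PubChem screen for compounds that inhibit SV40 T antigen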
Sequence of Large T antigen (P03070 whole entry): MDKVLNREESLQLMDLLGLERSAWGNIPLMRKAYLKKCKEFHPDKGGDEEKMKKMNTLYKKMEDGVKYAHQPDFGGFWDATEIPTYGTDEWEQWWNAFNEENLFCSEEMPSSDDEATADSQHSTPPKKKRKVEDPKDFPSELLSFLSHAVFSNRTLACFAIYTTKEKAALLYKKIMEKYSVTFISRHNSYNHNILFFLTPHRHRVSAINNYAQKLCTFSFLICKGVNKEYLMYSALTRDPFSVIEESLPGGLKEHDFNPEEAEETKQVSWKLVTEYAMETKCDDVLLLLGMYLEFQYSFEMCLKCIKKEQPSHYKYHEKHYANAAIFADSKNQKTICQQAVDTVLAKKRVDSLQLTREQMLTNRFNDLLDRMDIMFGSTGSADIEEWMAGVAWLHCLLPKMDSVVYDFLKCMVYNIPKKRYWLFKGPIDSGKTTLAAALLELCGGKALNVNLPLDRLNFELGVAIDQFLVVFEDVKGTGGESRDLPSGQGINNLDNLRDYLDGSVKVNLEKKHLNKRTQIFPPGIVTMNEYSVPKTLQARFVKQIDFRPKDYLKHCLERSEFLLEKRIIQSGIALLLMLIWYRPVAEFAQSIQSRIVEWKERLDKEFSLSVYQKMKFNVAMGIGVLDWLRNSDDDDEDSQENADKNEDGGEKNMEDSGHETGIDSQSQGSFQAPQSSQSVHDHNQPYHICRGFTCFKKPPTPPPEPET

Sequence of Cytochrome P450 2D6 (P10635 whole entry): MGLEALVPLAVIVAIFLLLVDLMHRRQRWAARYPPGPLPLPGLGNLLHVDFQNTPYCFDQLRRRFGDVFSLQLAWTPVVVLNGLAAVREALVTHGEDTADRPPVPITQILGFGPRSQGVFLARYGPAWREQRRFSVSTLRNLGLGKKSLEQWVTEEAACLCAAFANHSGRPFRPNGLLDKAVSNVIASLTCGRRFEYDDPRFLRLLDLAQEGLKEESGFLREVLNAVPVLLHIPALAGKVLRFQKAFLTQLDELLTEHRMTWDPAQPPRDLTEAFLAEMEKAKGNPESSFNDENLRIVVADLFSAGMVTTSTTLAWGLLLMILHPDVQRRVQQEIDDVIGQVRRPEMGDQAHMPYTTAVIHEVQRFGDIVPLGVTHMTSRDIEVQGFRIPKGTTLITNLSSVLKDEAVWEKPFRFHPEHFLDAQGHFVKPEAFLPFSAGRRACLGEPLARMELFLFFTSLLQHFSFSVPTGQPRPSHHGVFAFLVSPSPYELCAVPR

SMILES: OCC1OC(c2ccc3c(c2)OCO3)C=CC1Oc1ccc(C2CCCC2)cc1 (centres undefined)
- AC50 (Cytochrome P450 2D6): 3.16 µM (inconclusive)
- AC50 (Cytochrome P450 3A4): 2 µM (inconclusive)

SMILES: O=C1c2n[nH]c(-c3ccccc3O)c2C(c2ccc(F)cc2)N1CC1CCCO1 (centres undefined)
- EC50 [1]: > 50 µM (active)

SMILES: COc1ccc2c(c1)C(C)CC(C)(C)N2C(=O)CSc1nc2ccccc2s1 (centres undefined)
- IC50 [2]: 3.08 µM (not active)
- EC50 (Mucolipin-3): 2.63 µM (active)
- EC50 (Ion channel NompC): > 29.9 µM (not active)

SMILES: Cc1cccc(OCCSc2nnc(-c3ccoc3C)n2C)c1
- EC50 [1]: > 50 µM (active)

SMILES: CCOc1cc(/C=C(/C#N)C(=O)Nc2ccc(O)cc2)cc(Br)c1O
- EC50 (Protein RecA): 3.28 µM (active)
- AC50 [3]: > 380 µM (inactive)
- EC50 [4]: 9.51 µM (active)
- IC50 (Aminopeptidase N): 78.7 µM (active)
- EC50 [5]: 9.71 µM (inconclusive)
- EC50 [6]: 7.65 µM (active)

SMILES: CC(C)c1nc2oc3c(O)ncnc3c2c2c1COC(C)(C)C2
- IC50 (Hexokinase HKDC1): 8.22 µM (active)

SMILES: COc1ccc(OC)c(C(c2c(O)oc3ccccc3c2=O)c2c(C)n(C)n(-c3ccccc3)c2=O)c1 (centres undefined)
- IC50 (Aminopeptidase N): 71 µM (active)

SMILES: COc1cc(/C=C2\SC(=S)N(C(C(=O)O)c3ccccc3)C2=O)ccc1O (centres undefined)
- IC50 (Large T antigen): 11.6 µM (active)
- IC50 (Aminopeptidase N): 38.1 µM (active)

SMILES: COc1ccccc1C(=O)Nc1nnc(-c2ccc(Cl)cc2)o1
- EC50 [1]: > 50 µM (active)

SMILES: COc1ncnc2c1oc1nc(C(C)C)c3c(c12)CC(C)(C)OC3
- IC50 (Hexokinase HKDC1): 11.7 µM (active)
